In patent US20230144619A1, “SALT OF ARYLAMINOPURINE DERIVATIVE, PREPARATION METHOD THEREFOR AND USE THEREOF” (CSPC Zhongqi Pharmaceutical Technology (Shijiazhuang) Co., …, priority 2020, published 2023):
Where a name gives a salt, the structure may show the parent alone.

Tests used:
[1] = Solubility test (UV spectrophotometer, saturated solutions shaken 24 hours); assay type: physicochemical; conditions: 25° C.
Protocol: Detection instrument: Ultraviolet spectrophotometer/Evolution 300
The following solutions with pH=1.2, pH=4.5, and pH=6.8 and water were used as the solvent, and the solvent preparation process was as follows:
(1) pH=1.2 hydrochloric acid solution: To 7.65 mL of hydrochloric acid was added 1000 mL of water, and the mixture was shaken uniformly to obtain the target solution.
(2) pH=4.5 phosphate buffer solution: 6.8 g of potassium dihydrogen phosphate was taken and diluted with water to 1000 mL, and the mixture was shaken uniformly to obtain the target solution.
(2) pH=6.8 phosphate buffer solution: 6.8 g of potassium dihydrogen phosphate and 0.896 g of sodium hydroxide were taken and diluted with water to 1000 mL, and the mixture was shaken uniformly to obtain the target solution.
(4) Water: purified water
Test tubes with stopper were taken, and 10 mL of dissolution media at various pH values were precisely added to the test tubes respectively, and excessive stock drugs were added until supersaturated solutions were formed. The adding amounts were recorded. The solutions were shaken uniformly, sealed with stoppers, and shaken for 24 hours in a shaker. 2 mL of solutions were taken out at different time points respectively, and centrifuged. The resulting supernatants were taken, filtered, and the subsequent filtrates were taken for later use.
The above-mentioned saturated solutions in different solvents were taken, and solvents were added to dilute the solutions to certain volumes. The absorbances were measured at a wavelength of 287 nm.
Preparation of a solution of the reference substance: an appropriate amount of the compound represented by Formula 1 was taken as the reference substance, and precisely weighed. A solvent was added to dissolve and dilute the reference compound to produce a solution containing about 10 μg of the compound represented by Formula 1 per 1 mL. The absorbance was measured at a wavelength of 287 nm to calculate the solubility.
The salts obtained in Examples 1 and 3-17 and the compound represented by Formula 1 were subjected to the solubility test in media and the test results were shown in the following table: […]

DSC and TGA tests = assay type: physicochemical; conditions: onset temperature
Protocol: 6. Differential Scanning Calorimetry-Thermogravimetric Analysis (DSC-TGA)
Detection instrument: NETZSCH STA 449F3
Temperature range: 20° C.-350° C.;
Heating rate: 10.0 (K/min);
7. Differential Scanning Calorimetry (DSC)
Detection instrument: NETZSCH DSC 214 Polyma
Temperature range: 20° C.-250° C.;
Heating rate: 5.0 (K/min);
8. Thermogravimetric Analysis (TGA)
Detection instrument: METTLER and SDT Q600
The salts obtained in Examples 1 and 3-17 and the compound represented by Formula 1 were subjected to the DSC and TGA tests in media, and the test results were shown in the following table: […]

EGFR(h) = EGFR(h) (Homo sapiens, UniProt P00533); assay: Kinase inhibitory activity test (per WO2011/147066); assay type: biochemical
ALK = ALK (Homo sapiens, UniProt Q9UM73); assay: as above; assay type: biochemical; conditions: result in words
ALK, sequence (Q9UM73 19-1620): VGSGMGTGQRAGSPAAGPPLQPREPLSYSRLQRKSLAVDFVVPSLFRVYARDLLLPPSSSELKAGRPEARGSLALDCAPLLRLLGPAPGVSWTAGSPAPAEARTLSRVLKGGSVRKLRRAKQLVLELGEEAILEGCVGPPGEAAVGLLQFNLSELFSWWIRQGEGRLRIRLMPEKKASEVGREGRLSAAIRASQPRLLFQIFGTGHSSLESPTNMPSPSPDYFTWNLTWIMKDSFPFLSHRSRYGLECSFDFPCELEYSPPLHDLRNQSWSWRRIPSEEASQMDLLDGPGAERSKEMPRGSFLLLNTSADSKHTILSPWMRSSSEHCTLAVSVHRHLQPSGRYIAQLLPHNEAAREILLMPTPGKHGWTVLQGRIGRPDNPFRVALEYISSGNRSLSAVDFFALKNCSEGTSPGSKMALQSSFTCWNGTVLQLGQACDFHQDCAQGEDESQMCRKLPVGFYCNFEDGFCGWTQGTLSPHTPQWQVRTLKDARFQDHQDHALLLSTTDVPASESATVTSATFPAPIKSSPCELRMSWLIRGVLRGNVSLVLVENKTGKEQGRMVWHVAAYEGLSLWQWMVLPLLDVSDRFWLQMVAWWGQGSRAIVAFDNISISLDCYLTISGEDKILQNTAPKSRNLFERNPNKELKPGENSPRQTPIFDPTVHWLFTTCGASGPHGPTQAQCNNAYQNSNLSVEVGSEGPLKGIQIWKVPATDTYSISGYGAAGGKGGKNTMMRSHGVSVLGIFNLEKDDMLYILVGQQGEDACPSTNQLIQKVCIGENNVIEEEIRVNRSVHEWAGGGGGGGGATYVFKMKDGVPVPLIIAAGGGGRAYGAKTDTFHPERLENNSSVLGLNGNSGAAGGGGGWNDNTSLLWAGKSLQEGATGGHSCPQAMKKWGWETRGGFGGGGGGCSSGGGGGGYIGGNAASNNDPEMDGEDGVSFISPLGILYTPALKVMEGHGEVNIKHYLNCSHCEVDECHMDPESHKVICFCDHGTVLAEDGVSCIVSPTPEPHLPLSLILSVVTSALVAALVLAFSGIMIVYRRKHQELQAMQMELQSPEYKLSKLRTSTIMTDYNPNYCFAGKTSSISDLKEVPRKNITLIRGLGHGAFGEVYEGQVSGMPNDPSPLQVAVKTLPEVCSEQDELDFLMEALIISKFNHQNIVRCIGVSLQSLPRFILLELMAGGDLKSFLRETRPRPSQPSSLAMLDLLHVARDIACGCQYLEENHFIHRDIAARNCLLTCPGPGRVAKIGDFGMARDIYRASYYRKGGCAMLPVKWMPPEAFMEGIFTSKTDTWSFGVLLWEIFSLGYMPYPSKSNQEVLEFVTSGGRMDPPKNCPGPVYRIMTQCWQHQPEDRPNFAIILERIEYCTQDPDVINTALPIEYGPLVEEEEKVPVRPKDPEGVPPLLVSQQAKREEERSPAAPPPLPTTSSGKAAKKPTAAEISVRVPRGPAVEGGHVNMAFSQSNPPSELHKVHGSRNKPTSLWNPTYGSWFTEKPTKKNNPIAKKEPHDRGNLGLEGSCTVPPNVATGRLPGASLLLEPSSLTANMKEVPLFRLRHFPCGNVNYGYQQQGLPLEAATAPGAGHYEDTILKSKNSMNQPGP
Protocol: (§1) The salt sample obtained from Example 1 was tested according to the kinase inhibitory activity test described in the biological assessment of the patent application WO2011/147066.

Abl(h) = Abl(h) (Homo sapiens, UniProt P00519); assay: as above; assay type: biochemical
Abl(h), sequence (P00519 whole entry): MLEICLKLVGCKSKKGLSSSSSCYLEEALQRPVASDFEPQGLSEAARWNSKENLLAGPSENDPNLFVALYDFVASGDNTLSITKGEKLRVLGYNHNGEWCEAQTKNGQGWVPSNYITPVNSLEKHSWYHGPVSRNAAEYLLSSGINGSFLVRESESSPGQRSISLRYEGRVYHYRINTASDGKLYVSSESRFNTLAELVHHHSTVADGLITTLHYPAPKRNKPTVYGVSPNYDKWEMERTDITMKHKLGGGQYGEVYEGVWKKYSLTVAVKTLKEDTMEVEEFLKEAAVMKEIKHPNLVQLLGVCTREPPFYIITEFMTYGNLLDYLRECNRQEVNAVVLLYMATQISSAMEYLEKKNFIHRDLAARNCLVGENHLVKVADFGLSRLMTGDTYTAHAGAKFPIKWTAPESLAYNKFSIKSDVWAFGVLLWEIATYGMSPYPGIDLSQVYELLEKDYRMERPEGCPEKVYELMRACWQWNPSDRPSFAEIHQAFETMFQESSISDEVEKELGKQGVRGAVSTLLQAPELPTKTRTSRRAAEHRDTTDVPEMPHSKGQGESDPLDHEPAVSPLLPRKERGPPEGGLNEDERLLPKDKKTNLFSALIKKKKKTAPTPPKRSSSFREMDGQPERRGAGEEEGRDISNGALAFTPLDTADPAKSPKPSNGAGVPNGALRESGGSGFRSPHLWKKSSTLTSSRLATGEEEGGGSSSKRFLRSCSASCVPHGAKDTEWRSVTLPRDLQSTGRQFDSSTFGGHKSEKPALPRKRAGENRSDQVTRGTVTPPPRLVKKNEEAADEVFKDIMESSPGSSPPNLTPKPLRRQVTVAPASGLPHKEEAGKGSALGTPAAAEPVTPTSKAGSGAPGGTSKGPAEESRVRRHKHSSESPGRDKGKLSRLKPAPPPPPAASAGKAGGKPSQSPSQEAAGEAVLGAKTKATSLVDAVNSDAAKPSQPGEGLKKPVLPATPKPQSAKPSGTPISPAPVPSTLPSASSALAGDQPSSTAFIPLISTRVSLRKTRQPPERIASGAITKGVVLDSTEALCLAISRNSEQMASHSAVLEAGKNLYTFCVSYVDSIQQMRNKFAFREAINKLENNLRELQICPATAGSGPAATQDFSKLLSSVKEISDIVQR
Protocol: as §1

BTK = BTK (Homo sapiens, UniProt Q06187); assay: as above; assay type: biochemical; conditions: result in words
Protocol: as §1

FGFRl(h) = FGFRl(h) (Homo sapiens, UniProt P11362); assay: as above; assay type: biochemical
Protocol: as §1

FLT3(h) = FLT3(h) (Homo sapiens, UniProt P36888); assay: as above; assay type: biochemical
Protocol: as §1

FLT3-ITD(h) = FLT3-ITD(h) (Homo sapiens, UniProt P36888); assay: as above; assay type: biochemical
Protocol: as §1

Fyn(h) = Fyn(h) (Homo sapiens, UniProt P06241); assay: as above; assay type: biochemical
Protocol: as §1

Hck(h) = Hck(h) (Homo sapiens, UniProt P08631); assay: as above; assay type: biochemical
Protocol: as §1

KDR(h) = KDR(h) (Homo sapiens, UniProt P35968); assay: as above; assay type: biochemical
Protocol: as §1

Lck(h) = Lck(h) (Homo sapiens, UniProt P06239); assay: as above; assay type: biochemical
Lck(h), sequence (P06239 whole entry): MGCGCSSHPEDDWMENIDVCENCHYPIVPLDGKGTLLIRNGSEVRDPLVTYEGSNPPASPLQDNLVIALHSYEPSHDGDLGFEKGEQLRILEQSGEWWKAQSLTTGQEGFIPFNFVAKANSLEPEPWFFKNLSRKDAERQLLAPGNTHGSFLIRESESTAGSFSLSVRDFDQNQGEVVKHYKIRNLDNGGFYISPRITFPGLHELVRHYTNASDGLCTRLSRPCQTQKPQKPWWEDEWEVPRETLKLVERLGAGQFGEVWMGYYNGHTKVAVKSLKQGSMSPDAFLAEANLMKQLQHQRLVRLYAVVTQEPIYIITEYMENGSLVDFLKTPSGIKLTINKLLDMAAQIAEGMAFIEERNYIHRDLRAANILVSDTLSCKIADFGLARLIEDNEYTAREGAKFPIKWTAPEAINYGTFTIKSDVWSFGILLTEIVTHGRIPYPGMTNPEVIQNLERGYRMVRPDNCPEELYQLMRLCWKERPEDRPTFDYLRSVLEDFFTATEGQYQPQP
Protocol: as §1

Lyn(h) = Lyn(h) (Homo sapiens, UniProt P07948); assay: as above; assay type: biochemical
Lyn(h), sequence (P07948 whole entry): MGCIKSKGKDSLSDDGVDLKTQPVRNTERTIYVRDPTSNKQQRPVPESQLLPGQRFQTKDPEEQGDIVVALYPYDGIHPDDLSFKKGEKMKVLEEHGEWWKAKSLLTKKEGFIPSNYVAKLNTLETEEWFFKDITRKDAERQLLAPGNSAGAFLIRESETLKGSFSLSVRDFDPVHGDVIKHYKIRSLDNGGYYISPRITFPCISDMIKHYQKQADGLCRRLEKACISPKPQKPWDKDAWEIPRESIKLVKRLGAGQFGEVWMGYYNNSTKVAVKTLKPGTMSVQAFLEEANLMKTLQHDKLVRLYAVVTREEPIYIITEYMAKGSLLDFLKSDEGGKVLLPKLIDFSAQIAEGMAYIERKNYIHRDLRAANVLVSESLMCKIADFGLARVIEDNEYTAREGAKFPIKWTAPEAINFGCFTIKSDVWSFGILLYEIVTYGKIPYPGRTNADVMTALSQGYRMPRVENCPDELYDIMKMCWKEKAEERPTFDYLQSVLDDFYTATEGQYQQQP
Protocol: as §1

MET = MET (Homo sapiens, UniProt P08581); assay: as above; assay type: biochemical; conditions: result in words
MET, sequence (P08581 25-1390): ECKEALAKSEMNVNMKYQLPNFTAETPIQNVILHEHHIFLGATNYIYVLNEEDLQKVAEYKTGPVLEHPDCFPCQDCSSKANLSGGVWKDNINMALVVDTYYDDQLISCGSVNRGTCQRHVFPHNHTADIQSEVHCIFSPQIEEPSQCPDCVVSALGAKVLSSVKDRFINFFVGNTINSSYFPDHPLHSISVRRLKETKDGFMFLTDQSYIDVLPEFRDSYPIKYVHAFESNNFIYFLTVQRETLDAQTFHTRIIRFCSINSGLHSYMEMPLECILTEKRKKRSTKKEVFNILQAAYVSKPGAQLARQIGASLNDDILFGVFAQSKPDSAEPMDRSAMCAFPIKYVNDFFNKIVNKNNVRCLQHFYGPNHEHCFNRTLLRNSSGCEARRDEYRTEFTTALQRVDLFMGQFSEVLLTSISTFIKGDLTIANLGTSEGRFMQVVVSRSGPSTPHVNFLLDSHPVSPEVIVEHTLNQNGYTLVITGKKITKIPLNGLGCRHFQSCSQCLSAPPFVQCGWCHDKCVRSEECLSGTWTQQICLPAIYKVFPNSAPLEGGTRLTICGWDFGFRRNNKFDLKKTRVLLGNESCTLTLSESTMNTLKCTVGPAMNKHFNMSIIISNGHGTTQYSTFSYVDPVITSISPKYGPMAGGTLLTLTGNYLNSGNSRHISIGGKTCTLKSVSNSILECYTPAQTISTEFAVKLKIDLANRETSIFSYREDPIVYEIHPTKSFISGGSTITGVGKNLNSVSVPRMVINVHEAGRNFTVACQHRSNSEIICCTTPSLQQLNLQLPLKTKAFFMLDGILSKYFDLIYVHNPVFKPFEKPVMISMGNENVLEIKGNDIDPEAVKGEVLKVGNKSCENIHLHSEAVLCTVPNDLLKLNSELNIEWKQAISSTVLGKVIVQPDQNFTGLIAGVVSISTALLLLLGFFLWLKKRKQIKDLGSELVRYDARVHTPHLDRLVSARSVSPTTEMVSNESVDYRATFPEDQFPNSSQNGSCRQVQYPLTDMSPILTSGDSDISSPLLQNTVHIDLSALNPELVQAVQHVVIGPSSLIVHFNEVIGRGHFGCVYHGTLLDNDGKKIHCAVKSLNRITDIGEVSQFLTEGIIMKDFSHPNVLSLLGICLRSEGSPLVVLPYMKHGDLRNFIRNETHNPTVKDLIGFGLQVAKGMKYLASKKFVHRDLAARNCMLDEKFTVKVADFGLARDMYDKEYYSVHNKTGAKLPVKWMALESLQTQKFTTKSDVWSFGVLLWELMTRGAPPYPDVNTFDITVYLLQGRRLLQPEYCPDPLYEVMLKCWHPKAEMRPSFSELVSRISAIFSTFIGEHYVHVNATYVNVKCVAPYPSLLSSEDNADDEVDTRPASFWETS
Protocol: as §1

PDGFRα = PDGFRα (Homo sapiens, UniProt P16234); assay: as above; assay type: biochemical; conditions: result in words
Protocol: as §1

Ret(h) = Ret(h) (Homo sapiens, UniProt P07949); assay: as above; assay type: biochemical
Protocol: as §1

VEGFR2 = VEGFR2 (Homo sapiens, UniProt P35968); assay: as above; assay type: biochemical; conditions: VEGFR2, result in words
Protocol: as §1

Yes = Yes (Homo sapiens, UniProt P07947); assay: as above; assay type: biochemical
Protocol: as §1

c-KIT = c-KIT (Homo sapiens, UniProt P10721); assay: as above; assay type: biochemical; conditions: result in words
Protocol: as §1

c-SRC(h) = c-SRC(h) (Homo sapiens, UniProt P12931); assay: as above; assay type: biochemical
Protocol: as §1

[2] = system: MV4-11 (FLT3-ITD mutation) subcutaneous tumor model; assay: In-vivo anti-tumor test, MV4-11 subcutaneous tumor model; design: species or system nude mice; conditions: MV4-11 model, once daily oral administration for 21 days
Protocol: The salt sample obtained from Example 1 was tested (specifically for FLT3-ITD acute myeloid leukemia, non-small cell lung cancer with EGFR activating mutations, or Ph-positive chronic myeloid leukemia) according to the in-vivo anti-tumor test described in the biological assessment of the patent application WO2011/147066.

Solubility, Water medium pH = 1.2 ([1]; pH=1.2 hydrochloric acid solution): 33.89 mg/mL
Solubility, Water medium pH = 4.5 ([1]; pH=4.5 phosphate buffer solution): 47.27 mg/mL
Solubility, Water medium pH = 6.8 ([1]; pH=6.8 phosphate buffer solution): 50.62 mg/mL
Solubility, Water medium ([1]; water (purified water)): 40.41 mg/mL
TGA: starting to lose the acid (DSC and TGA tests): ~140 °C (see FIG. 19)
TGA: starting to lose the water of crystallization (DSC and TGA tests): crystallization at about 40° C.;
IC50 (EGFR(h)): 42 nM
inhibition of kinase activity (ALK): could inhibit the activities
IC50 (Abl(h)): 25 nM
inhibition of kinase activity (BTK): could inhibit the activities
IC50 (FGFRl(h)): 247 nM
IC50 (FLT3(h)): 26 nM
IC50 (FLT3-ITD(h)): 3 to 10 nM
IC50 (Fyn(h)): 34 nM
IC50 (Hck(h)): 93 nM
IC50 (KDR(h)): 323 nM
IC50 (Lck(h)): 37 nM
IC50 (Lyn(h)): 7 nM
inhibition of kinase activity (MET): could inhibit the activities
inhibition of kinase activity (PDGFRα): could inhibit the activities
IC50 (Ret(h)): 10 nM
inhibition of kinase activity (VEGFR2): could inhibit the activities
IC50 (Yes): 4 nM
inhibition of kinase activity (c-KIT): could inhibit the activities
IC50 (c-SRC(h)): 176 nM
Compound: CC(C)n1c(Nc2cccnc2)nc2cnc(Nc3ccc(N4CCN(C)CC4)cc3)nc21 [Example 1, arylaminopurine derivative.trihydrochloride.pentahydrate]
tumor growth ([2]; 5 mg/kg): completely inhibit the tumor growth
tumor growth ([2]; 10 mg/kg): complete regression of the tumor
tumor growth ([2]; 20 mg/kg): complete regression of the tumor
